The source of these data is ChEMBL document CHEMBL5725827, “2-pyridyloxy-3-ester-4-nitrile orexin receptor antagonists” (2017).

For the experiment, the target named is Orexin/Hypocretin receptor type 1 (Rattus norvegicus, UniProt P56718). The experiment can be described thus: Radioligand Binding Assay: Described in Bergman et. al. Bioorg. Med. Chem. Lett. 2008, 18, 1425-1430. On the set-up: species or system Homo sapiens.
Chain of Orexin/Hypocretin receptor type 1 (P56718 whole entry, looked up): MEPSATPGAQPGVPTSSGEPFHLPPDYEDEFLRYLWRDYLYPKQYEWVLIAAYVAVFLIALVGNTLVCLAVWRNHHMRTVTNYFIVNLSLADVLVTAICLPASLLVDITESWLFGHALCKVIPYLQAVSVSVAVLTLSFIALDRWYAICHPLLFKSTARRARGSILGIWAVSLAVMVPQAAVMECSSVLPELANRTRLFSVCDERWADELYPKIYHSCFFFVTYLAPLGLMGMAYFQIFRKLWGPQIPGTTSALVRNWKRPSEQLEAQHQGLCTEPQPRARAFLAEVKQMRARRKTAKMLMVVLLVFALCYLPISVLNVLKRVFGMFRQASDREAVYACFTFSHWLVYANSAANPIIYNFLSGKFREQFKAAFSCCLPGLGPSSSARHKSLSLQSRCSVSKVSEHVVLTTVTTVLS

Consider `COC(=O)c1c(C#N)ccnc1O[C@@H]1CC[C@@H](C)N(C(=O)c2ccccc2-n2nccn2)C1`, for which the inhibition constant (Ki) worked out at 56 nM.
Compound `COC(=O)c1c(C#N)ccnc1O[C@@H]1CC[C@@H](C)N(C(=O)c2cc(F)ccc2-c2nc(C)no2)C1` registered a Ki of 153 nM.
In turn, `COC(=O)c1c(C#N)ccnc1O[C@@H]1CC[C@@H](C)N(C(=O)c2cccc(F)c2-c2noc(C)n2)C1` showed a Ki of 128 nM.
Regarding `COC(=O)c1c(C#N)ccnc1O[C@@H]1CC[C@@H](C)N(C(=O)c2cccc(F)c2-n2nccn2)C1`, the Ki stood at 210 nM.
`COC(=O)c1c(C#N)ccnc1O[C@@H]1CC[C@@H](C)N(C(=O)c2ccccc2-c2nc(C)no2)C1` came in with a Ki of 73.8 nM.
Regarding `COC(=O)c1c(C#N)ccnc1O[C@@H]1CC[C@@H](C)N(C(=O)c2cc(F)ccc2-c2ncccn2)C1`, the Ki is 46 nM.
`COC(=O)c1c(C#N)ccnc1O[C@@H]1CC[C@@H](C)N(C(=O)c2ccc(F)cc2-c2nc(C)no2)C1` returned an inhibitory constant (Ki) of 405 nM.
For the compound `COC(=O)c1c(C#N)ccnc1O[C@@H]1CC[C@@H](C)N(C(=O)c2ccc(F)cc2-c2ncccn2)C1`, the affinity, expressed as Ki, was 75.6 nM.
`COC(=O)c1c(C#N)ccnc1O[C@@H]1CC[C@@H](C)N(C(=O)c2cc(F)ccc2-n2nccn2)C1` yielded a Ki of 144 nM.
The compound `COC(=O)c1c(C#N)ccnc1O[C@@H]1CC[C@@H](C)N(C(=O)c2ccccc2-c2noc(C)n2)C1` came in with a Ki of 86.6 nM.
To `COC(=O)c1c(C#N)ccnc1O[C@@H]1CC[C@@H](C)N(C(=O)c2cc(C)ccc2-n2nccn2)C1` belongs 25.8 nM; to `COC(=O)c1c(C#N)ccnc1O[C@@H]1CC[C@@H](C)N(C(=O)c2ccc(F)cc2-n2nccn2)C1`, 175 nM.
Take `COC(=O)c1c(C#N)ccnc1O[C@@H]1CC[C@@H](C)N(C(=O)c2cc(F)ccc2-c2noc(C)n2)C1`: the Ki was 117 nM.
`COC(=O)c1c(C#N)ccnc1O[C@@H]1CC[C@@H](C)N(C(=O)c2c(C)cccc2-n2nccn2)C1` displayed an inhibition constant Ki of 37.1 nM.
The same measure for `COC(=O)c1c(C#N)ccnc1O[C@@H]1CC[C@@H](C)N(C(=O)c2c(F)cccc2-n2nccn2)C1`: 63 nM.
